Test systems include KM20L2 colon; M19-MEL melanoma; SNB-78 CNS; XF 498 CNS; NCI/ADR-RES ovarian; MDA-N; DMS 114 small cell lung; DMS 273 small cell lung.
Common to all, as to test: inhibition of tumour cell growth, NCI panel, 48 h

Where “and” joins values, the source holds several entries; their conditions need not be identical. Equal values may be shown once.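 In this assay, cells in 96-well plates receive the compound at five concentrations for 48 hours. Endpoints are linearly interpolated between the surrounding concentrations. GI50 is the concentration that inhibits growth by half. TGI: concentration producing complete growth inhibition.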

`CCOCc1cc(=O)c2c(OC)cc3c(c2o1)CCC(C)(C)O3`: the TGI in the assay with KM20L2 colon, in the assay with M19-MEL melanoma, in the assay with SNB-78 CNS and in the assay on XF 498 CNS was above 100 µM in each case.
As to `C/C(=N/N=C(N)N)c1ccc(NC(=O)Nc2ccc(/C(C)=N/N=C(N)N)cc2)cc1`, in the assay with NCI/ADR-RES ovarian, the GI50 was 18 µM and the TGI is above 100 µM.
Compound `O=C(O)Cc1cccc2c(=O)c3cccc([N+](=O)[O-])c3oc12` yielded a TGI with MDA-N above 100 µM.
Take `CCN(Cc1ccc(F)cc1)c1ccc(CO)c(OC)c1`: in the assay with NCI/ADR-RES ovarian, the GI50 was 17.6 µM and the TGI worked out at 55.5 µM.
For the compound `CC(C)C1N2CCCCC2[C@@H]2c3[nH]c4ccccc4c3CCN12` (stereo partly drawn), the TGI in the assay with DMS 114 small cell lung, in the assay on DMS 273 small cell lung, with KM20L2 colon, in the assay on M19-MEL melanoma, in the assay on SNB-78 CNS and in the assay with XF 498 CNS was above 100 µM throughout.
As for `N#CC1C(=O)NC(c2ccccc2[N+](=O)[O-])c2sc3c(F)cccc3c21` (stereo not drawn), in the assay on NCI/ADR-RES ovarian, the GI50 was 8.06 µM and the TGI is 39.8 µM.
For the compound `CCN=C(C#N)NCC`, the TGI in the assay with DMS 114 small cell lung is 92 µM; with DMS 273 small cell lung, above 100 µM; in the assay on KM20L2 colon, above 100 µM; with M19-MEL melanoma it was above 100 µM; in the assay on SNB-78 CNS, above 100 µM; in the assay with XF 498 CNS, above 100 µM.
In the case of `Cc1ccc(NC(=O)OCC(COc2ccc(Cl)cc2Cl)OC(=O)Nc2ccc(C)cc2)cc1` (stereo not drawn), the TGI in the assay on DMS 114 small cell lung, in the assay with DMS 273 small cell lung, with KM20L2 colon, in the assay on M19-MEL melanoma and with SNB-78 CNS was above 100 µM each time.
On to `C[CH2][Sn]([CH2]C)([O]C(=O)c1ccc(OC)c(OC)c1OC)[O]C(=O)c1ccc(OC)c(OC)c1OC`, for which the GI50 in the assay with DMS 114 small cell lung is 25.7 µM; with DMS 273 small cell lung it was above 100 µM; in the assay on KM20L2 colon, above 100 µM; in the assay on M19-MEL melanoma, 53.2 µM; with MDA-N, above 100 µM; in the assay on NCI/ADR-RES ovarian, above 100 µM. Further, the GI50 in the assay on XF 498 CNS was 34.6 µM. For the same compound, the TGI in the assay with DMS 114 small cell lung was above 72.8 µM; in the assay on DMS 273 small cell lung, above 100 µM; in the assay on KM20L2 colon, above 100 µM; in the assay on M19-MEL melanoma it was above 100 µM; with MDA-N it was above 100 µM; with NCI/ADR-RES ovarian, above 100 µM. The TGI in the assay on XF 498 CNS is above 71.5 µM.
On to `Fc1ccc(Nc2nc3ccccc3c3occc23)cc1`, for which, in the assay on NCI/ADR-RES ovarian, the GI50 was 2.48 µM and the TGI was 13 µM.
Take `Cc1cc(Cl)ccc1NC(=O)C(=O)C(C(=O)c1ccccc1)C1OC(=O)c2ccccc21` (stereo not drawn): the TGI in the assay with DMS 114 small cell lung, in the assay on DMS 273 small cell lung, with KM20L2 colon, with M19-MEL melanoma, in the assay on SNB-78 CNS and in the assay on XF 498 CNS was above 100 µM throughout.
For the compound `COC1=CC(=O)c2nc(Cl)ccc2C1=O`, in the assay with NCI/ADR-RES ovarian, the GI50 was 1.98 µM and the TGI is 4.24 µM.
Regarding `CCCCCC[C@H](C)NC(=O)c1ccc(Nc2nc3ccccc3c3occc23)cc1`, in the assay on NCI/ADR-RES ovarian, the GI50 was 2.48 µM and the TGI is 6.99 µM.
Turning to `COc1ccc(N(C)c2nc(Cl)nc3cnn(C)c23)cc1`, in the assay on NCI/ADR-RES ovarian, the GI50 was below 0.01 µM and the TGI is above 100 µM.
Consider `CC1C2CC=CC(=O)[C@@]2(C)CCC12OCCO2` (stereo partly drawn), for which the TGI in the assay with DMS 114 small cell lung, in the assay on DMS 273 small cell lung, in the assay with KM20L2 colon, with M19-MEL melanoma and in the assay on SNB-78 CNS was above 100 µM throughout.
Turning to `COc1cc(/C=C/C(=O)c2c(C)nc3ccccc3c2C)ccc1OCCCN1CCN(C(=O)c2ccco2)CC1`, in the assay with NCI/ADR-RES ovarian, the GI50 is 5.55 µM and the TGI turned out to be 45.2 µM.
Consider `C/C(=N/Nc1nc(C)cc(=O)[nH]1)C(=O)O`, for which the TGI in the assay on MDA-N and in the assay on NCI/ADR-RES ovarian was above 100 µM in each case.
For the compound `Cc1ccc(OCC2OC(n3cnc4c(Br)nc(Br)nc43)CC2Oc2ccc(C)cc2)cc1` (stereo not drawn), in the assay on MDA-N, the GI50 was 6.2 µM; the TGI was 17.4 µM and 9.89 µM. In addition, in the assay with NCI/ADR-RES ovarian, the GI50 is 20.4 µM; the TGI is 53.5 µM and 29.5 µM.
`CCCCCCCC(=O)[O][Hg][CH2]C1COC([CH2][Hg][O]C(=O)CCCCCCC)CO1` (stereo not drawn): in the assay on MDA-N, the GI50 is 15.6 µM and the TGI turned out to be 30 µM. In addition, in the assay on NCI/ADR-RES ovarian, the GI50 is 20.2 µM and the TGI was determined as 49.6 µM.
Regarding `CN(C)CCOC(=O)Nc1nc2ccc(Sc3ccccc3)cc2[nH]1`, in the assay with NCI/ADR-RES ovarian, the GI50 was 2.44 µM and the TGI is 9.65 µM.
`CCCCN(CCCC)CCCn1cnc2ncccc2c1=O`: the TGI in the assay with DMS 114 small cell lung, in the assay with DMS 273 small cell lung, in the assay with KM20L2 colon, with M19-MEL melanoma, with SNB-78 CNS and in the assay with XF 498 CNS was above 100 µM throughout.
On to `COc1ccc2c(c1OC(C)=O)C1=CC(=O)CCC13CCNC3C2` (stereo not drawn), for which the TGI with MDA-N and with NCI/ADR-RES ovarian was above 100 µM in each case.
For the compound `COc1ccc(/C=C2\c3cc(OC)c(OC)c(OC)c3CC[C@@H]2O)cc1F`, in the assay on NCI/ADR-RES ovarian, the GI50 is 0.196 µM and the TGI was determined as 1.31 µM.
Take `O=[N+]([O-])c1cc2c([N+](=O)[O-])cccc2o1`: the TGI with MDA-N was 23.6 µM; in the assay on NCI/ADR-RES ovarian it was 32.6 µM.
In the case of `C=C1C(=O)O[C@H]2[C@H]1CC/C(COC(=O)NCCCCCCCCNC(=O)OC/C1=C/CC[C@@]3(C)O[C@H]3[C@H]3OC(=O)C(=C)[C@@H]3CC1)=C\CC[C@@]1(C)O[C@@H]21`, in the assay with NCI/ADR-RES ovarian, the GI50 is 3.91 µM and the TGI was found to be 18.7 µM.
In the case of `CSc1ccc(C(=O)/C=C/c2ccccc2Cl)cc1`, in the assay with NCI/ADR-RES ovarian, the GI50 is 18.9 µM and the TGI is 40.1 µM.
For the compound `FC(F)(F)c1cc(Nc2ccc3cc(OCCCN4CCOCC4)ccc3n2)ccc1Cl`, in the assay on NCI/ADR-RES ovarian, the GI50 is 2.69 µM and the TGI amounted to 18 µM.
